For the assay, the target named is T1, human B1 (Homo sapiens, UniProt P46663).
T1 construct: host or cells: CHO-K1
T1 sequence (P46663 1-353): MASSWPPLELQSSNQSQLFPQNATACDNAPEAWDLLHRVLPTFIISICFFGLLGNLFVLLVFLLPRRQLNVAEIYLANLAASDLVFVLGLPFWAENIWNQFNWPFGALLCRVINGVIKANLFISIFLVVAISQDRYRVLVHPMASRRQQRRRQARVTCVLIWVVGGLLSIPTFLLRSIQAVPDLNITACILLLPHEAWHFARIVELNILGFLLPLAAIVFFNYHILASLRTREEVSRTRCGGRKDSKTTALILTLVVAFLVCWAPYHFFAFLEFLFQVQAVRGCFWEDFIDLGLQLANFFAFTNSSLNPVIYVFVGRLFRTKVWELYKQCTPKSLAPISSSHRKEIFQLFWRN
Description: Calcium flux assay for Bradykinin B1 antagonist, CHO-K1 cell line expressing human B1. It is filed as cell-based. The following applies: CHO-K1 cells expressing human B1, agonist Lys-(Des-Arg)-Bradykinin, read-out: Potency (IC50 value against human B1). The protocol: Calcium Flux Assay for Bradykinin B1 Antagonist
The potency to inhibit the Bradykinin B1 receptors was determined for the compounds of this invention in a cell-based fluorescent calcium-mobilization assay. The assay measures the ability of test compounds to inhibit Bradykinin B1 receptor agonist-induced increase of intracellular free Ca^2+ in cell lines expressing B1.
The change of the intracellular Ca^2+ concentration is monitored with a specifically designed fluorescent plate reader (FlexStation, Molecular Devices).
CHO-K1 cell line expressing human B1 was purchased from Euroscreen (Gosselies, Belgium, with reference name hBl-D1). CHO-K1 cell lines expressing rat B1 or mouse B1 were established in the following way: the full-length receptor-coding cDNA clones were obtained by PCR performed on rat or mouse brain cDNAs. The respective cDNAs were cloned into an expression vector under the control of a CMV promotor. The resultant plasmids were introduced into CHO-K1 cells with liposome technology (FuGENE; Roche Diagnostics, Basel), according to the standard protocols described by the manufacturer. Cell lines expressing a Bradykinin receptor were selected in the culture medium containing 400 μg/ml G418 (Sigma). From selected cell populations, monoclonal cell lines were isolated by single cell cloning. The expression of Bradykinin receptors was confirmed by immunofluorescence staining of the cells, as well as by calcium flux assay.
Human B1-expressing cells were grown in Nutrient Mixture Ham's F12 (Sigma) containing 10% Foetal bovine serum (Sigma) and 400 μg/ml G418 (Sigma), 5 μg/ml puromycim (Sigma); Rat B1 and mouse B1-expressing cells were grown in DMEM/F12 medium (Sigma) containing 10% Foetal bovine serum (Sigma) and 400 μg/ml G418 (Sigma).
For the calcium flux assay, 80% confluent cells were detached from the culture vessels with Versene (Gibco; for human B1 cell-line) or with 1× trypsin-EDTA solution (Sigma; for rodent B1 cell-line), and seeded into 384-well plates (Cell binding Surface; Corning, N.Y.; #3683) at a density of 15,000 cells per well for human B1 or at a density of 20,000 cells per well for rodent B1. Cells were seeded in a volume of 50 μl in medium without antibiotics and incubated overnight in a humidified atmosphere with 5% CO2 at 37° C. The following day, the medium was replaced with 20 μl of 5 μM Fluo-4AM dye (Molecular Probes) in assay buffer (2.5 mM probenicid, 1 mg/ml pluronic acid, 0.1% BSA, 135 mM NaCl, 5 mM KCl, 1.8 mM CaCl, 1 mM MgCl2, 10 mM HEPES, 5.6 mM glucose, 0.05% gelatine, pH 7.4). The calcium indicator loaded cells were incubated at 37° C. for 2 hrs. Extracellular dye was then removed and each well was filled with 45 μl of assay buffer. Cell plates were kept in dark until used. Test compounds were assayed at 8 concentrations in triplicate. Serial 10-fold dilutions in 100% DMSO were made at a 100-times higher concentration than the final concentration, and then diluted 1:10 in assay buffer. 5 μl of each diluted compound was added to the well of cell plates (yielding final concentration with 1% DMSO), and incubated for 30 min at 25° C. before the addition of B1 agonist on the FlexStation.
The addition of agonist 20 μl per well to the assay plate was carried out on the FlexStation while continuously monitoring Ca^2+-dependent fluorescence at 538 nm. The integrated values, normalized with the background fluorescence, were plotted against the logarithm of the antagonist concentrations.
Take `COc1cc(C)c(S(=O)(=O)N(C)Cc2cc(C(=O)N3CCN(C4CCN(C)CC4)CC3)co2)c(C)c1` [Ex 1, 4-Methoxy-N,2,6-trimethyl-N-[(4-{[4-(1-methylpiperidin-4-yl)piperazin-1-yl]carbonyl}furan-2-yl)methyl]benzenesulfonamide]: the IC50 lay in the range of 100 to 1000 nM.
Consider `COc1cc(C)c(S(=O)(=O)N(C)Cc2cc(C(=O)N(C)Cc3ccc(-n4ccnc4)cc3)co2)c(C)c1` [Ex 2, N-[4-(1H-imidazol-1-yl)benzyl]-5-({[(4-methoxy-2,6-dimethylphenyl)sulfonyl](methyl)amino}methyl)-N-methylfuran-3-carboxamide], for which the IC50 is 100 to 1000 nM.
As to `COc1cc(C)c(S(=O)(=O)N(C)Cc2cc(C(=O)NC3CC(C)(C)N(C)C(C)(C)C3)co2)c(C)c1` [Ex 3, 5-({[(4-methoxy-2,6-dimethylphenyl)sulfonyl](methyl)amino}methyl)-N-(1,2,2,6,6-pentamethylpiperidin-4-yl)furan-3-carboxamide], the IC50 was 100 to 1000 nM.
In the case of `COc1cc(C)c(S(=O)(=O)N(C)Cc2cc(C(=O)NCCc3ccc(C4=NCCN4)cc3)co2)c(C)c1` [Ex 4, N-{2-[4-(4,5-dihydro-1H-imidazol-2-yl)phenyl]ethyl}-5-({[(4-methoxy-2,6-dimethylphenyl)sulfonyl](methyl)amino}methyl)furan-3-carboxamide] it was less than 10 nM; in that of `COc1cc(C)c(S(=O)(=O)N(C)Cc2cc(C(=O)N(C)CCc3ccc(C4=NCCN4)cc3)co2)c(C)c1` [Ex 5, N-{2-[4-(4,5-dihydro-1H-imidazol-2-yl)phenyl]ethyl}-5-({[(4-methoxy-2,6-dimethylphenyl)sulfonyl](methyl)amino}methyl)-N-methylfuran-3-carboxamide], less than 10 nM.
In the case of `COc1cc(C)c(S(=O)(=O)N(C)Cc2cc(C(=O)NCc3ccc(C4=NCCN4)cc3)co2)c(C)c1` [Ex 6, N-[4-(4,5-dihydro-1H-imidazol-2-yl)benzyl]-5-({[(4-methoxy-2,6-dimethylphenyl)sulfonyl](methyl)amino}methyl)furan-3-carboxamide], the IC50 fell in the range of 10 to 100 nM.
As to `COc1cc(C)c(S(=O)(=O)N(C)Cc2cc(C(=O)NCCc3ccc(C4=NC(C)CN4)cc3)co2)c(C)c1` (stereo not drawn) [Ex 7, 5-({[(4-methoxy-2,6-dimethylphenyl)sulfonyl](methyl)amino}methyl)-N-{2-[4-(4-methyl-4,5-dihydro-1H-imidazol-2-yl)phenyl]ethyl}furan-3-carboxamide], the IC50 was less than 10 nM.
With `COc1cc(C)c(S(=O)(=O)N(C)Cc2cc(C(=O)N(C)Cc3cccc(CN4CCCC4)c3)co2)c(C)c1` [Ex 8, 5-({[(4-methoxy-2,6-dimethylphenyl)sulfonyl](methyl)amino}methyl)-N-methyl-N-[3-(pyrrolidin-1-ylmethyl)benzyl]furan-3-carboxamide], the IC50 was in the range of 10 to 100 nM.
As for `COc1cc(C)c(S(=O)(=O)N(C)Cc2cc(C(=O)N(C)Cc3ccc(CN4CCCC4)cc3)co2)c(C)c1` [Ex 9, 5-({[(4-methoxy-2,6-dimethylphenyl)sulfonyl](methyl)amino}methyl)-N-methyl-N-[4-(pyrrolidin-1-ylmethyl)benzyl]furan-3-carboxamide], the IC50 is 10 to 100 nM.
For `COc1cc(C)c(S(=O)(=O)N(C)Cc2cc(C(=O)N(C)Cc3ccc(C4=NCCCN4)cc3)co2)c(C)c1` [Ex 10, 5-({[(4-methoxy-2,6-dimethylphenyl)sulfonyl](methyl)amino}methyl)-N-methyl-N-[4-(1,4,5,6-tetrahydropyrimidin-2-yl)benzyl]furan-3-carboxamide], the IC50 lay within 10 to 100 nM.
For the molecule `COc1cc(C)c(S(=O)(=O)N(C)Cc2cc(C(=O)NCc3cccc(CN4CCCC4)c3)co2)c(C)c1` [Ex 11, 5-({[(4-methoxy-2,6-dimethylphenyl)sulfonyl](methyl)amino}methyl)-N-[3-(pyrrolidin-1-ylmethyl)benzyl]furan-3-carboxamide], the IC50 is 100 to 1000 nM.
For the molecule `COc1cc(C)c(S(=O)(=O)N(C)Cc2cc(C(=O)NCc3ccc(Nc4cccc[n+]4C)cc3)co2)c(C)c1` [Ex 12, 2-({4-[({[5-({[(4-methoxy-2,6-dimethylphenyl)sulfonyl](methyl)amino}methyl)furan-3-yl]carbonyl}amino)methyl]phenyl}amino)-1-methylpyridinium iodide], the IC50 is 100 to 1000 nM.
In the case of `COc1cc(C)c(S(=O)(=O)N(C)Cc2cc(C(=O)NCCc3ccc(Nc4cccc[n+]4C)cc3)co2)c(C)c1` [Ex 13, 2-({4-[2-({[5-({[(4-methoxy-2,6-dimethylphenyl)sulfonyl](methyl)amino}methyl)furan-3-yl]carbonyl}amino)ethyl]phenyl}amino)-1-methylpyridinium iodide], the IC50 was less than 10 nM.
Consider `COc1cc(C)c(S(=O)(=O)N(C)Cc2cc(C(=O)NCc3ccc(Nc4nccc(N)n4)cc3)co2)c(C)c1` [Ex 14, N-{4-[(4-aminopyrimidin-2-yl)amino]benzyl}-5-({[(4-methoxy-2,6-dimethylphenyl)sulfonyl](methyl)amino}methyl)furan-3-carboxamide], for which the IC50 lay within 100 to 1000 nM.
Regarding `CCc1cc(Br)ccc1S(=O)(=O)N(C)Cc1cc(C(=O)N2CCCN(CCCN3CCCC3)CC2)co1` [Ex 15, 4-bromo-2-ethyl-N-methyl-N-[(4-{[4-(3-pyrrolidin-1-ylpropyl)-1,4-diazepan-1-yl]carbonyl}furan-2-yl)methyl]benzenesulfonamide], the IC50 fell in the range of 10 to 100 nM.
Regarding `CCc1cc(Br)ccc1S(=O)(=O)N(C)Cc1cc(C(=O)NCc2cccc(CN3CCCC3)c2)co1` [Ex 16, 5-({[(4-bromo-2-ethylphenyl)sulfonyl](methyl)amino}methyl)-N-[3-(pyrrolidin-1-ylmethyl)benzyl]furan-3-carboxamide], the IC50 lay within 100 to 1000 nM.
As to `CN1CCC(CN2CCN(C(=O)c3coc(CN(C)S(=O)(=O)c4c(Cl)cccc4Cl)c3)CC2)CC1` [Ex 17, 2,6-dichloro-N-methyl-N-{[4-({4-[(1-methylpiperidin-4-yl)methyl]piperazin-1-yl}carbonyl)furan-2-yl]methyl}benzenesulfonamide], the IC50 lay in the range of 100 to 1000 nM.
Regarding `CN(Cc1cc(C(=O)N2CCN(CCc3ccncc3)CC2)co1)S(=O)(=O)c1c(Cl)cccc1Cl` [Ex 18, 2,6-dichloro-N-methyl-N-[(4-{[4-(2-pyridin-4-ylethyl)piperazin-1-yl]carbonyl}furan-2-yl)methyl]benzenesulfonamide], the IC50 lay in the range of 100 to 1000 nM.
Regarding `CN(Cc1ccc(C2=NCCN2)cc1)C(=O)c1coc(CN(C)S(=O)(=O)c2c(Cl)cc(Br)cc2Cl)c1` [Ex 19, 5-({[(4-bromo-2,6-dichlorophenyl)sulfonyl](methyl)amino}methyl)-N-[4-(4,5-dihydro-1H-imidazol-2-yl)benzyl]-N-methylfuran-3-carboxamide], the IC50 is less than 10 nM.
Turning to `Cc1cc(S(=O)(=O)N(C)Cc2cc(C(=O)N(C)Cc3ccc(C4=NCCN4)cc3)co2)c(C)cc1Cl` [Ex 20, 5-({[(4-chloro-2,5-dimethylphenyl)sulfonyl](methyl)amino}methyl)-N-[4-(4,5-dihydro-1H-imidazol-2-yl)benzyl]-N-methylfuran-3-carboxamide], the IC50 is less than 10 nM.
As for `CN(Cc1ccc(C2=NCCN2)cc1)C(=O)c1coc(CN(C)S(=O)(=O)c2ccc(Cl)cc2Cl)c1` [Ex 21, 5-({[(2,4-dichlorophenyl)sulfonyl](methyl)amino}methyl)-N-[4-(4,5-dihydro-1H-imidazol-2-yl)benzyl]-N-methylfuran-3-carboxamide], the IC50 is less than 10 nM.

(Values after US8623859B2, “Bradykinin B1 antagonists” (Evotec AG, priority 2008, dated 2014).)
